Laboratory results as given in PMC9030254, “Target Hopping from Protein Kinases to PXR: Identification of Small-Molecule Protein Kinase Inhibitors as Selective Modulators of Pregnane X Receptor from TüKIC Library” (Cells, 2022).

Tests used:
Experiment in all cases: Kinase profiling
Format in all cases: biochemical
AXL = target: T1, AXL (Homo sapiens, UniProt P30530)
T1 construct: purchased ProQinase (Freiburg, Germany)
T1 sequence (P30530 26-894): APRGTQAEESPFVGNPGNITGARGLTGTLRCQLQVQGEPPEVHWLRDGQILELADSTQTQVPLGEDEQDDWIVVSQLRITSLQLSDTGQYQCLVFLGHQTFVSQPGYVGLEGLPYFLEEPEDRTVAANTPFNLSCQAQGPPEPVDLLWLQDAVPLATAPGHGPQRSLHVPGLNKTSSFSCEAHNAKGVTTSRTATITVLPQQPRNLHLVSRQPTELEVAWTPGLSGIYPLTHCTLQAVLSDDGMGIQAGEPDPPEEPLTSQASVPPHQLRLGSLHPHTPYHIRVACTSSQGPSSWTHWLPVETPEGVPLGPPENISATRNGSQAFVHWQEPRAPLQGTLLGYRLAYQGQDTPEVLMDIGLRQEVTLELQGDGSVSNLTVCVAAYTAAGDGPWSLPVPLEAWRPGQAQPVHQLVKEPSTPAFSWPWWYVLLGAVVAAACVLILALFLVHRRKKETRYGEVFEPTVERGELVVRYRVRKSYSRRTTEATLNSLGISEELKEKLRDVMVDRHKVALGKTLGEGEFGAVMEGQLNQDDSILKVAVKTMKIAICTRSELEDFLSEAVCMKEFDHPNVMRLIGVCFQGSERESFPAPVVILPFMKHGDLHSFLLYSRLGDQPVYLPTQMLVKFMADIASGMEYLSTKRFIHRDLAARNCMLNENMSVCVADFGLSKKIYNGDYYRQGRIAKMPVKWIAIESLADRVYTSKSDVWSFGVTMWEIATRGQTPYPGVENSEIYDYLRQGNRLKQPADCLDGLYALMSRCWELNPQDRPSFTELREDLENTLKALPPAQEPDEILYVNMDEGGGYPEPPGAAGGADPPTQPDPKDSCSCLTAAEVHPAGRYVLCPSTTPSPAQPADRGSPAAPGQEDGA
Procedure: (§1) The analysis was performed by ProQinase (Freiburg, Germany).

CDK13/CycK = target: T2, CDK13/CycK (Homo sapiens, UniProt Q14004)
T2 construct: purchased ProQinase (Freiburg, Germany)
Procedure: as §1

CDK6/CycD1 = target: T3, CDK6/CycD1 (Homo sapiens, UniProt Q00534)
T3 construct: purchased ProQinase (Freiburg, Germany)
T3 sequence (Q00534 whole entry): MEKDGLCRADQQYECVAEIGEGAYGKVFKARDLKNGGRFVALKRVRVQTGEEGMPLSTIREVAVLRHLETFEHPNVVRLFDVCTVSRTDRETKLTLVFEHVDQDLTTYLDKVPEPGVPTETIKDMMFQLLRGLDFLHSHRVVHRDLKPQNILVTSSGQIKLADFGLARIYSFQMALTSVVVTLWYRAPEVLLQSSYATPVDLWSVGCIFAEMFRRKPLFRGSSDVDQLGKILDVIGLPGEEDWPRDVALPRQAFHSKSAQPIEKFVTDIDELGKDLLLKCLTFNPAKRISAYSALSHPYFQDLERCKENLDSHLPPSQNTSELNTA
T3 sequence (P24385 whole entry partner): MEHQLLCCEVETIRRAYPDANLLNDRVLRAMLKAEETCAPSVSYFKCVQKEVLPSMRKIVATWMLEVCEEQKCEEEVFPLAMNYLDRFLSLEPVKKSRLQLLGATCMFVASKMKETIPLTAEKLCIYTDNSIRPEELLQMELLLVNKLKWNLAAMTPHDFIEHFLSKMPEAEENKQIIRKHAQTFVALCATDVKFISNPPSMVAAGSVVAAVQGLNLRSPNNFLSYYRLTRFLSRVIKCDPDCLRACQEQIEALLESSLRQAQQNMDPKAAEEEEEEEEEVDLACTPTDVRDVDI
Procedure: as §1

CK1gamma3 = target: T4, CK1gamma3 (Homo sapiens, UniProt Q9Y6M4)
T4 construct: purchased ProQinase (Freiburg, Germany)
T4 sequence (Q9Y6M4 whole entry): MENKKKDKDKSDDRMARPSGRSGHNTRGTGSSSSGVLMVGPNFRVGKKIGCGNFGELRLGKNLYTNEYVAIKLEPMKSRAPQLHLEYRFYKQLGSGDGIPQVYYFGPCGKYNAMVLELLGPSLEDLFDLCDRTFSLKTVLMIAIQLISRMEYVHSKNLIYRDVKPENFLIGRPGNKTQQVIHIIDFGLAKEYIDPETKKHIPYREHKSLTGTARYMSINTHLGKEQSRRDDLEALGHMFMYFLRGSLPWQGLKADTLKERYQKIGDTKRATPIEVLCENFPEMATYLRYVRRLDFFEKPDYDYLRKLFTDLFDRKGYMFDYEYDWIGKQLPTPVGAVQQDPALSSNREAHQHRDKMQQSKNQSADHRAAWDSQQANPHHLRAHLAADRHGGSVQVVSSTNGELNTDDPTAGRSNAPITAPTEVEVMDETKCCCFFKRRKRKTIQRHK
Procedure: as §1

FGFR3 = target: T5, FGFR3 (Homo sapiens, UniProt P22607)
T5 construct: purchased ProQinase (Freiburg, Germany)
T5 sequence (P22607 23-806): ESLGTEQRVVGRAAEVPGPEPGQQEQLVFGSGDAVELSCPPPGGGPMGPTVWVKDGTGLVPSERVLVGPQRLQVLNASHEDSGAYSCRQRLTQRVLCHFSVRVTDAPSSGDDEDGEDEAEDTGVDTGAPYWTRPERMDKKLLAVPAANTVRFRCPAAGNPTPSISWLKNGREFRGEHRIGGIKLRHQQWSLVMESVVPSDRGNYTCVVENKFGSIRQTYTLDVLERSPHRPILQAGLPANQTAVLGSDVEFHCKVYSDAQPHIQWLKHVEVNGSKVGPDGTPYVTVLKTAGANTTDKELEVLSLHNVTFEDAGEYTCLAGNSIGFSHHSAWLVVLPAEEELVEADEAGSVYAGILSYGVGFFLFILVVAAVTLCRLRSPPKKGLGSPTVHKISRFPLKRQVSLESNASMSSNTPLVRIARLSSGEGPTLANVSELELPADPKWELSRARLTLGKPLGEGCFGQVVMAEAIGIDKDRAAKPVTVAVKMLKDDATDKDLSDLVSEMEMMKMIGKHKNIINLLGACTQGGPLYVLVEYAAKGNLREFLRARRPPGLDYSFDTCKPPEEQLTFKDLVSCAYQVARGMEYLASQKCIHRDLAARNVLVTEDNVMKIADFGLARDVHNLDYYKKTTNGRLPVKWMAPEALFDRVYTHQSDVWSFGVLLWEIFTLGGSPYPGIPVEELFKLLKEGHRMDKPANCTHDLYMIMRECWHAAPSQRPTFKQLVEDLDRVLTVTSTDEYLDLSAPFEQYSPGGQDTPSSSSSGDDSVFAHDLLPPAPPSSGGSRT
Procedure: as §1

FRK = target: T6, FRK (Homo sapiens, UniProt P42685)
T6 construct: purchased ProQinase (Freiburg, Germany)
T6 sequence (P42685 whole entry): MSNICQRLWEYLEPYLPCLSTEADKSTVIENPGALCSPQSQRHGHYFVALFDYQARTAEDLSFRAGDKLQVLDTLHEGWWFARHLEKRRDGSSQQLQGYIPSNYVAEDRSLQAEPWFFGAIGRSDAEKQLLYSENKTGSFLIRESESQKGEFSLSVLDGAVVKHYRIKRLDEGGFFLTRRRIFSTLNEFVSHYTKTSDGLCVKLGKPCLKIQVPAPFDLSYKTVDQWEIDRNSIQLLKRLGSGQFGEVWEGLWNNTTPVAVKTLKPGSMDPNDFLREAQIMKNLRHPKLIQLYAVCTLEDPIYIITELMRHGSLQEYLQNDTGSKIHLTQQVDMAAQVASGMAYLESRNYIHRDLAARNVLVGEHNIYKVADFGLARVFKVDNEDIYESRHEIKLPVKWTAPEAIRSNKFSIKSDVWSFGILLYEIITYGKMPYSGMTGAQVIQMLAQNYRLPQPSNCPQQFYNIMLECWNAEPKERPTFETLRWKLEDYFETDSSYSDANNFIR
Procedure: as §1

JAK1 = target: T7, JAK1 (Homo sapiens, UniProt P23458)
T7 construct: purchased ProQinase (Freiburg, Germany)
T7 sequence (P23458 whole entry): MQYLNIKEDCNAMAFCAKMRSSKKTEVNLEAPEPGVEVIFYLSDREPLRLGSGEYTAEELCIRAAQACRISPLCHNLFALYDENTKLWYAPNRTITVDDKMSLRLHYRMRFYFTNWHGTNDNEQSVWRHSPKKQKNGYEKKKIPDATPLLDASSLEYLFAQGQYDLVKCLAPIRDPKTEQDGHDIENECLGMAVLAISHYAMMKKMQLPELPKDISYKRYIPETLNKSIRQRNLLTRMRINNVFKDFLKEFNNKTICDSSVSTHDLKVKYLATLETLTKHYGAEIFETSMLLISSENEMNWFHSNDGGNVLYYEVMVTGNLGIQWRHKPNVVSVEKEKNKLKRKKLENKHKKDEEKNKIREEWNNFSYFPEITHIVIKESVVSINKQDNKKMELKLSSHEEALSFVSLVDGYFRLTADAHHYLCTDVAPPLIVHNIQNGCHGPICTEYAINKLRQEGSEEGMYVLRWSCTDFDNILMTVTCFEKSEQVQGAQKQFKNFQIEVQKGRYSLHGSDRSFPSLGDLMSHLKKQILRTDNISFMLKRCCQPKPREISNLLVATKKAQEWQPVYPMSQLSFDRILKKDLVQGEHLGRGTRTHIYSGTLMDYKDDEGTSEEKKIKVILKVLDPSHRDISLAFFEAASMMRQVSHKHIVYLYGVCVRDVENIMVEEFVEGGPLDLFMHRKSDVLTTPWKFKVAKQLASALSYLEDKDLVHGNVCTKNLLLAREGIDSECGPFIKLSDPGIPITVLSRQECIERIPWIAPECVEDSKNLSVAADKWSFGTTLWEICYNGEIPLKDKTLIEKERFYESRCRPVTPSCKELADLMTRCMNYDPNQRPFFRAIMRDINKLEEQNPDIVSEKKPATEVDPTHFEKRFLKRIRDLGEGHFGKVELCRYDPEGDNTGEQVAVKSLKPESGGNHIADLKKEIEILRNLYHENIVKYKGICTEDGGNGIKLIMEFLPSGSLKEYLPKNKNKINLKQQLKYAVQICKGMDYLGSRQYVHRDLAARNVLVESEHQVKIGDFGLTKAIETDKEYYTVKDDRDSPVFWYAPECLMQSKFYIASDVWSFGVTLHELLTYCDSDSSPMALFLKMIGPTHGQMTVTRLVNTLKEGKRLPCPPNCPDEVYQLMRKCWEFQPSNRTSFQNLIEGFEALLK
Procedure: as §1

LIMK2 = target: T8, LIMK2 (Homo sapiens, UniProt P53671)
T8 construct: purchased ProQinase (Freiburg, Germany)
T8 sequence (P53671 whole entry): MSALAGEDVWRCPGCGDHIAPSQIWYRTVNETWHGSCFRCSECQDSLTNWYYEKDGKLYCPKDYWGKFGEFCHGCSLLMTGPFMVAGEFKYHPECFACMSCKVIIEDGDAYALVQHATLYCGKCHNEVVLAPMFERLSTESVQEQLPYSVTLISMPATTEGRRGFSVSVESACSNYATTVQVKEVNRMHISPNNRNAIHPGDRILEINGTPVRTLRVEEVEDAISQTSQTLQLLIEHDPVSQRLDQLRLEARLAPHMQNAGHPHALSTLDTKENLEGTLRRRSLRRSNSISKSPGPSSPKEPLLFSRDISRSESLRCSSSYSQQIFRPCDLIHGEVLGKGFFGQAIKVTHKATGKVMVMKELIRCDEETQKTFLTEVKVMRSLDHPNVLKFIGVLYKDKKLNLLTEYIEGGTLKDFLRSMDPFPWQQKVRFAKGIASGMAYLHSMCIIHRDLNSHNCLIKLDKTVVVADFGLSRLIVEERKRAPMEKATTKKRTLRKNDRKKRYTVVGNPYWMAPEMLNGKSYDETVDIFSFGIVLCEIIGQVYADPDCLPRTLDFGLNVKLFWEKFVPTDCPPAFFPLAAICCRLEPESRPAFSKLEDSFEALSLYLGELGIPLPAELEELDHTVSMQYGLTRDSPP
Procedure: as §1

SRPK2 = target: T9, SRPK2 (Homo sapiens, UniProt P78362)
T9 construct: purchased ProQinase (Freiburg, Germany)
T9 sequence (P78362 whole entry): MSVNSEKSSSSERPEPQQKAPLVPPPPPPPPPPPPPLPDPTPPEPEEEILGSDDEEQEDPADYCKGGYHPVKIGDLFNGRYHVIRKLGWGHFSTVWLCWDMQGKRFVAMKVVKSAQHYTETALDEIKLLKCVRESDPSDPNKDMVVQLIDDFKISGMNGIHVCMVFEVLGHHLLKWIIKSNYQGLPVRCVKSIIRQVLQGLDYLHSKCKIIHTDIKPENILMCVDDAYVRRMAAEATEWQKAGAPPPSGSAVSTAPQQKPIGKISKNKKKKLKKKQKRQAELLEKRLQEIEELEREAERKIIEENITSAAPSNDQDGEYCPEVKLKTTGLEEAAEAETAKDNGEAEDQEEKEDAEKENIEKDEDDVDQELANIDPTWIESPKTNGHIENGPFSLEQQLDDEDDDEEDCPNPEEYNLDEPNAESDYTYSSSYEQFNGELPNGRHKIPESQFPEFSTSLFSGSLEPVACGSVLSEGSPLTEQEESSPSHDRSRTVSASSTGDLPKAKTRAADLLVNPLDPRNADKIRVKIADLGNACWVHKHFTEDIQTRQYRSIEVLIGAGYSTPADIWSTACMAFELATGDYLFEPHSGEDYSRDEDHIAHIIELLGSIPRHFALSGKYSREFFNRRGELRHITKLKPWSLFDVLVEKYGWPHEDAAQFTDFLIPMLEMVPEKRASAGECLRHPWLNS
Procedure: as §1

TLK1 = target: T10, TLK1 (Homo sapiens, UniProt Q9UKI8)
T10 construct: purchased ProQinase (Freiburg, Germany)
T10 sequence (Q9UKI8 1-766): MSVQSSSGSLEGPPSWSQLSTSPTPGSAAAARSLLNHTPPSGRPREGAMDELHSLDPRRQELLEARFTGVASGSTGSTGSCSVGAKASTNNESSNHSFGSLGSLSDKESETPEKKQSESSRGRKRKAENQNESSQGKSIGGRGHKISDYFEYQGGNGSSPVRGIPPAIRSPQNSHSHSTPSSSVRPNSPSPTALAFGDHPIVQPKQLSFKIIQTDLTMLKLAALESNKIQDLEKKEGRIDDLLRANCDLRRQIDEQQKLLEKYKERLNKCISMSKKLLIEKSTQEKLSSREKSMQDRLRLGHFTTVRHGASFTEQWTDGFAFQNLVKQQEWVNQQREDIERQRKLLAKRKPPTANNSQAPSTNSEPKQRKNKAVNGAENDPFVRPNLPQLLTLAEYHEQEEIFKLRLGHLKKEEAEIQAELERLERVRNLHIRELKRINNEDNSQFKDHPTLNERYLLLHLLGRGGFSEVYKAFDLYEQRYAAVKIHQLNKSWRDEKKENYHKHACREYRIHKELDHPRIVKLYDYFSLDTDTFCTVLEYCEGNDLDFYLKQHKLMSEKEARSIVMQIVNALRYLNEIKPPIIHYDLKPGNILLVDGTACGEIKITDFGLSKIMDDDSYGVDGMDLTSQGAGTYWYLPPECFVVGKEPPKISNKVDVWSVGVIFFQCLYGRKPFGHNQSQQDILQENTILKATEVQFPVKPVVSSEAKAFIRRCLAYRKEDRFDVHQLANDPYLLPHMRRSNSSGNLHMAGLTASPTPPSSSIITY
Procedure: as §1

Structure (SMILES)	Residual activity (AXL; 1.0E-05 M)	Residual activity (AXL; 1.0E-06 M)	Residual activity (CDK13/CycK; 1.0E-05 M)	Residual activity (CDK13/CycK; 1.0E-06 M)	Residual activity (CDK6/CycD1; 1.0E-05 M)	Residual activity (CDK6/CycD1; 1.0E-06 M)	Residual activity (CK1gamma3; 1.0E-05 M)	Residual activity (CK1gamma3; 1.0E-06 M)	Residual activity (FGFR3; 1.0E-05 M)	Residual activity (FGFR3; 1.0E-06 M)	Residual activity (FRK; 1.0E-05 M)	Residual activity (FRK; 1.0E-06 M)	Residual activity (JAK1; 1.0E-05 M)	Residual activity (JAK1; 1.0E-06 M)	Residual activity (LIMK2; 1.0E-05 M)	Residual activity (LIMK2; 1.0E-06 M)	Residual activity (SRPK2; 1.0E-05 M)	Residual activity (SRPK2; 1.0E-06 M)	Residual activity (TLK1; 1.0E-05 M)	Residual activity (TLK1; 1.0E-06 M)	other results
O=C(Cc1ccccc1)Nc1ccc(F)c(Nc2ccc3c(c2)CCCCC3=O)c1 [Compound 100]	99 % of control	103 % of control	84 % of control	88 % of control	89 % of control	93 % of control	105 % of control	101 % of control	76 % of control	98 % of control	104 % of control	107 % of control	85 % of control	88 % of control	82 % of control	95 % of control	94 % of control	100 % of control	131 % of control	125 % of control	
O=C(Nc1ccc(F)c(Nc2ccc3c(c2)CCCCC3=O)c1)c1cccc(F)c1 [Compound 109]	93 % of control	98 % of control	92 % of control	88 % of control	90 % of control	84 % of control	32 % of control	79 % of control	95 % of control	110 % of control	102 % of control	107 % of control	88 % of control	77 % of control	93 % of control	98 % of control	102 % of control	111 % of control	114 % of control	103 % of control	inhibition at 10 µM (CK1gamma3; 10 µM, read-out: inhibition of CK1-γ3): ≥ 50%
